The source of these data is patent US20260108465A1 (Belhaven BioPharma Inc., priority 2024, published 2026).

For the data set the following is noted: human, in vivo; for mean AUC0-363: im.

Where two headings read alike, the source gives them in different places.

Method: Twelve human subjects participated in the open-label, single sequence crossover study. […] The subjects returned for a safety follow up visit 3 to 5 days after the final treatment. […] Nor did the subject participate in Treatment D.
The dry powder formulation was administered via intranasal instillation once using a nasal device (APTAR). The IM solution and materials were supplied by the study site and prepared according to the local procedures. The study drug was administered at approximately the same time on each treatment day. There was a washout period of 20 days between the nasal doses administered as treatment A and treatment D. The subjects were admitted to the clinical site the day before each treatment administration and remained on site until at least 8 hours post-dose, or when applicable, until 24 hours post-dose of the specific treatment period. The study drug was administered after at least a 10 hour fast. A standardized meal was provided approximately 4 hours after dosing.
Blood samples were collected prior to dosing at 60, 30, and 0 minutes before dosing, and after dosing at 2, 5, 7, 10, 15, 20, 25, 30, 45, 60, 90, 120, 180, 240, and 360 minutes. Vital signs, ECGs, and cardiac telemetry were obtained throughout the treatment period. […] The calibration curve range of the bioanalytical method was from 10 to 10000 pg/mL.
Noncompartmental analysis was performed on individual human subject plasma concentration-time data using nominal doses and actual blood sampling times. […] Baseline correction was accomplished using the average of the measured concentrations at nominal times of −60, −30, and 0 minutes before dosing.
Pharmacokinetic analyses were performed using the standard PK analysis software package PHOENIX® WinNonlin version 8.4.

Consider `CNC[C@H](O)c1ccc(O)c(O)c1` [Epinephrine IM, epinephrine], for which the “time of the second IM Cmax after dosing” value was “approximately 45 minutes”. For the same molecule, the “mean AUC0-363” value (0.3 mg) is 18790 pg·min/mL. Also, the “mean AUC0-363” value (0.5 mg) worked out at 35890 pg·min/mL.
